Data: US9521845B2, “Beta-lactones as antibacterial agents” (LUDWIG-MAXIMILIANS-UNIVERSITÄT-MÜNCHEN, priority 2008, dated 2016)

Key:
[1] = system: haemolysis abilities of Staphylococcus aureus; experiment: Blood agar plate-based haemolysis assay; type: cell-based
Experimental: FIG. 3: Blood agar plate-based assay illustrating that beta-lactones have an effect on the haemolysis abilities of Staphylococcus aureus. 2.5 μL of S. aureus LB dilution (OD600=0.13 corresponding to approx. 1×10^8 cfu/ml) and 2.5 μL DMSO/lactone in DMSO were applied on Whatman Cards placed on 5% sheep blood agar plates (Heipha Diagnostika, Eppelheim, Germany) and incubated at 37° C. over night. A) Direct comparison of beta-lactones as shown in FIG. 2 at a total amount of 250 nmol applied on Whatman Cards. B) Dose down with beta-lactone compounds D3, E2 and G2 at applied concentrations of 100 mM, 50 mM, 25 mM, 12.5 mM, 6.25 mM and 0 mM (corresponding to total amounts of 250 nmol, 125 nmol, 62.5 nmol, 31.3 nmol, 15.6 nmol and 0 nmol, respectively).
2.5 μl, of S. aureus LB dilution (OD600 0.13 corresponding to approx. 1×10^8 cfu/ml) and 2.5 μL DMSO/beta-lactone in DMSO were applied on Whatman Cards placed on 5% sheep blood agar plates (Heipha Diagnostika, Eppelheim, Germany) and incubated at 37° C. over night. FIG. 3A directly compares the β-lactones at a total amount of 250 nmol applied on Whatman Cards. […] For D3 almost no haemolysis is observed down to a total amount of 125 nmol lactone. FIG. 5 illustrates the haemolytic activity of beta-lactone compounds D3, E2 and G2 plotted against the total amount of the respective beta-lactone, whereby a haemolysis zone size of 1.5 mm was set as 100% haemolytic activity. The data shown in FIG. 5 has been corroborated by further experimental testing.
Haemolysis was tested on blood agar plates (5% sheep blood; Heipha Diagnostika, Eppelheim, Germany). Sterile circles of Whatman cards (No. Y) with 5 mm diameter were placed on agar plates and inoculated with 2.5 μL of the corresponding beta-lactone/DMSO and 2.5 μL stationary phase culture of S. aureus diluted to […]. The plates were incubated over night at 37° C. and the diameters of the zones around the bacterial colonies were precisely measured using a vernier caliper.

[2] = system: β-Ketoacyl acyl carrier protein synthase II (KAS II); experiment: ABPP labeling of bacterial proteomes, KAS II; type: binding, L. welshimeri, B. subtilis; details: 50 μM probe, FIGS. 9A and 9B
Text: The library of beta-lactones to be tested comprised compounds with aliphatic or aromatic substitutions varying in length and branching. To evaluate the target selectivity, the beta-lactones were screened against several gram-positive and gram-negative bacterial proteomes including Pseudomonas putida, Listeria welshimeri, Bacillus licheniformis, Bacillus subtilis and Escherichia coli, which are phylogenetically related to pathogenic strains. In addition, mouse liver cytosol was included as an eukaryotic reference proteome. Initial labeling experiments were carried out by adding individual probes at 50 μM concentration to the proteome which is sufficient to achieve full saturation of most targets. […] As an example, labeling of L. welshimeri cytosolic and membrane proteomes as well as B. subtilis cytosolic proteome with a subset of the most complementary probes is shown in FIGS. 9A and 9B. […] Most of the targeted proteins were of low abundance as shown by the direct comparison of the relative intensities observed with Coomassie staining vs. fluorescence scanning (FIG. 11).
Proteome samples were adjusted to a final concentration of 1 mg protein/mL by dilution in PBS prior to probe labeling. […]

ClpP = biological target: T1, ClpP (Staphylococcus aureus, UniProt Q2G036); experiment: In vivo labelling of the proteome of S. aureus; type: cell-based
T1 construct: endogenous in cells
T1 sequence (Q2G036 1-195): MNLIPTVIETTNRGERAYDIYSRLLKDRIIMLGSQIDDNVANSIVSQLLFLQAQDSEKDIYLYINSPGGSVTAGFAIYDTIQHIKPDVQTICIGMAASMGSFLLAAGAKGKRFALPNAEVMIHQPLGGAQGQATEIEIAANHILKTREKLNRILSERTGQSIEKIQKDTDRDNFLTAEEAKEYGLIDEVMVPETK
Experimental: FIG. 16: In vivo labelling of the proteome of S. aureus with beta-lactones. Probes were applied at a certain concentration to approx. 2×10^9 cfu of stationary phase S. aureus in 100 μL PBS and incubated for 2 h. Excess probe (beta-lactone) was removed by washing the cells 3× with 1 mL PBS each. Then the cells were lysed by sonication. ClpP has been identified by mass spectrometry from preparative SDS gels after workup and tryptic digestion. B) In vivo dose down of beta-lactones D3, E2 and G2 with S. aureus indicates strong labeling by beta-lactone D3. C) Increase of selectivity at 8.0 μM concentration.
This example relates to the in vivo labelling of the proteome of S. aureus with β-lactones. The beta-lactones were applied at a certain concentration to approx. 2×10^9 cfu of stationary phase S. aureus in 100 μL PBS and incubated for 2 h. Excess beta-lactone was removed by washing the cells 3× with 1 mL PBS each. Then the cells were lysed by sonication. […] ClpP has been identified by mass spectrometry from preparative SDS gels after workup and tryptic digestion.

C#CCCCC1OC(=O)C1CCCCCCCC=C (stereo not drawn) [D3, trans-3-(8-nonen-1-yl)-4-(4-pentyn-1-yl)oxetan-2-one]
potency ranking in haemolysis dose down (E2, G2, D3) ([1]; FIG. 5 dose down): most active | total amount down to which almost no haemolysis is observed ([1]; dose down 250-15.6 nmol): 125 nmol | haemolytic activity of S. aureus ([1]; total amount of 250 nmol applied on Whatman Cards, 5% sheep blood agar, 37° C. over night): strongly reduce | KAS II labeling [2]: labeled | ClpP labelling (ClpP; 8.0 μM concentration): still labelled | off-targets (selectivity) (ClpP; 8.0 μM concentration): almost no off-targets are visible | ClpP labelling in in vivo dose down (ClpP; stationary phase S. aureus, 2 h, dose down of D3, E2, G2): strong labelling
